According to ChEMBL document CHEMBL1131594, “Stereoisomers of cyclic urea HIV-1 protease inhibitors: synthesis and binding affinities” (J Med Chem, 1998):

Biological target: Human immunodeficiency virus type 1 protease (Human immunodeficiency virus 1, UniProt Q72874)
Experiment: Compound was tested for binding affinity against HIV-1 protease.

SMILES	Ki [nM]
O=C1N(Cc2ccccc2)[C@@H](Cc2ccccc2)[C@H](O)[C@@H](O)[C@H](Cc2ccccc2)N1Cc1ccccc1	560
O=C1N(Cc2ccccc2)[C@H](Cc2ccccc2)[C@H](O)[C@@H](O)[C@@H](Cc2ccccc2)N1Cc1ccccc1	3.6
O=C1N(Cc2ccccc2)[C@H](Cc2ccccc2)[C@@H](O)[C@H](O)[C@@H](Cc2ccccc2)N1Cc1ccccc1	1350
O=C1N(Cc2ccccc2)[C@@H](Cc2ccccc2)[C@H](O)[C@H](O)[C@H](Cc2ccccc2)N1Cc1ccccc1	1710
O=C1N(Cc2ccccc2)[C@H](Cc2ccccc2)[C@H](O)[C@@H](O)[C@H](Cc2ccccc2)N1Cc1ccccc1	64
O=C1N(Cc2ccccc2)[C@H](Cc2ccccc2)[C@H](O)[C@H](O)[C@H](Cc2ccccc2)N1Cc1ccccc1	250
O=C1N(Cc2ccccc2)[C@H](Cc2ccccc2)[C@@H](O)[C@H](O)[C@H](Cc2ccccc2)N1Cc1ccccc1	6700
O=C1N(Cc2ccccc2)[C@@H](Cc2ccccc2)[C@@H](O)[C@H](O)[C@H](Cc2ccccc2)N1Cc1ccccc1	3810
